Assay results from patent US20130317037A1, “METHOD OF ADMINISTRATION AND TREATMENT” (GlaxoSmithKline Intellectual Property Development Limited, priority 2010, published 2013).

Experiments:
Experiment in all cases: cells
Assay type in all cases: cell-based
CAMA1 = test system: CAMA1
Procedure, shortened: (§1)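 Cells were plated the day before dosing at densities chosen to keep controls sub-confluent, then treated for three days with 8 serial 1:5 DMSO dilutions. A time-0 plate gave the baseline; GI50 is the concentration halving net growth, [(Ti−Tz)/(C−Tz)]×100=50, per the NCI DTP screen method.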

HCC1500 = test system: HCC1500
Procedure, shortened: as §1

HCC70 = test system: HCC70
Procedure, shortened: as §1

M4A4 = test system: M4A4
Procedure, shortened: as §1

MDAMB134 = test system: MDAMB134
Procedure, shortened: as §1

MDAMB453 = test system: MDAMB453
Procedure, shortened: as §1

SUM1315MO2 = test system: SUM1315MO2
Procedure, shortened: as §1

T47DKBluc = test system: T47DKBluc
Procedure, shortened: as §1

## COc1ncc(-c2ccc3nccc(-c4ccnnc4)c3c2)cc1NS(=O)(=O)c1ccc(F)cc1F [Compound B, 2,4-difluoro-N-{2-(methyloxy)-5-[4-(4-pyridazinyl)-6-quinolinyl]-3-pyridinyl}benzenesulfonamide]
CAMA1; CAMA1, total growth inhibition
  TGI: 239.9 nM
CAMA1; Homo sapiens, CAMA-1, 72 h, CAMA1, three-day drug treatment, read-out: gIC50
  IC50: 89.1 nM
CAMA1; Homo sapiens, CAMA-1, CAMA1, 50% net loss of cells vs time 0, read-out: LC50 (the source's name)
  CC50: 537 nM
HCC1500; HCC1500, total growth inhibition
  TGI: 371.5 nM
HCC1500; Homo sapiens, 72 h, HCC1500, three-day drug treatment, read-out: gIC50
  IC50: 75.9 nM
HCC1500; Homo sapiens, HCC1500, 50% net loss of cells vs time 0, read-out: LC50 (the source's name)
  CC50: 6500 nM
HCC70; HCC70, total growth inhibition
  TGI: 26.8 nM
HCC70; Homo sapiens, 72 h, HCC70, three-day drug treatment, read-out: gIC50
  IC50: 4.9 nM
HCC70; Homo sapiens, HCC70, 50% net loss of cells vs time 0, read-out: LC50 (the source's name)
  CC50: 118 nM
M4A4; Homo sapiens, 72 h, M4A4, three-day drug treatment, read-out: gIC50
  IC50: 30.2 nM
M4A4; Homo sapiens, M4A4, 50% net loss of cells vs time 0, read-out: LC50 (the source's name)
  CC50: > 33000 nM
M4A4; M4A4, total growth inhibition
  TGI: 281.8 nM
MDAMB134; Homo sapiens, 72 h, MDAMB134, three-day drug treatment, read-out: gIC50
  IC50: 13.2 nM
MDAMB134; Homo sapiens, MDAMB134, 50% net loss of cells vs time 0, read-out: LC50 (the source's name)
  CC50: 224 nM
MDAMB134; MDAMB134, total growth inhibition
  TGI: 60.3 nM
MDAMB453; Homo sapiens, MDA-MB-453, 72 h, MDAMB453, three-day drug treatment, read-out: gIC50
  IC50: 7.8 nM
MDAMB453; Homo sapiens, MDA-MB-453, MDAMB453, 50% net loss of cells vs time 0, read-out: LC50 (the source's name)
  CC50: 162 nM
MDAMB453; MDAMB453, total growth inhibition
  TGI: 54.9 nM
SUM1315MO2; Homo sapiens, 72 h, SUM1315MO2, three-day drug treatment, read-out: gIC50
  IC50: 10 nM
SUM1315MO2; Homo sapiens, SUM1315MO2, 50% net loss of cells vs time 0, read-out: LC50 (the source's name)
  CC50: 8880 nM
SUM1315MO2; SUM1315MO2, total growth inhibition
  TGI: 158.3 nM
T47DKBluc; Homo sapiens, 50% net loss of cells vs time 0, read-out: LC50 (the source's name)
  CC50: 9500 nM
T47DKBluc; Homo sapiens, 72 h, three-day drug treatment, read-out: gIC50
  IC50: 15.4 nM
T47DKBluc; total growth inhibition
  TGI: 74.3 nM
